Measured values from patent publication US20250084063A1 (Incyte Corporation, priority 2023, published 2025).

What was measured:
Assay type in all cases: cell-based
[1] = molecular target: T1, MRGPRX2 (Homo sapiens, UniProt Q96LB1); test: MRGPRX2 IP1 HTRF assay; design: host or cells: CHO-K1; details: CHO-K1 cells stably expressing human MRGPRX2; IP1 accumulation, agonist Cortistatin 14 1 μM
T1 sequence (Q96LB1 1-330): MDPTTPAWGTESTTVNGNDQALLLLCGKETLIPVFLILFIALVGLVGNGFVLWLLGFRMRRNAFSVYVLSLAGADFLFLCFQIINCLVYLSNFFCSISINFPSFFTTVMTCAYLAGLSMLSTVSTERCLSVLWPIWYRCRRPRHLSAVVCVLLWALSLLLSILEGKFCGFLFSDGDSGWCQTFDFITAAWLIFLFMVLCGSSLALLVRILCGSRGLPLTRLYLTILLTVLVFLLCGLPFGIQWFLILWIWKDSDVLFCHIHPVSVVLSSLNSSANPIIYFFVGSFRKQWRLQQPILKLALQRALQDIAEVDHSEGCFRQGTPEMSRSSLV
Excerpt: Example B: MRGPRX2 IP1 HTRF Assay
This assay measures compound inhibition of myo-Inositol 1 phosphate (IP1) accumulation in CHO-K1 cells. Chinese hamster ovary (CHO-K1) cells stably expressing human MRGPRX2 were purchased from GenScript (Piscataway, NJ).
For the HTRF IP1 determination, an IP-One GqKit (Perkin Elmer Cisbio, Waltham, MA), which includes all reagents and buffers in this protocol, was used. The cells were maintained in culture medium (Ham's F-12K) containing 10% (v/v) FBS, and 200 μg/mL Zeocin. For the assay, the cells were harvested and resuspended in culture medium with 2% FBS and without Zeocin, then were passed through a 40 μm filter. Cells were added at 20000 cells in a 5 μL/well to a 384-well white small volume cell culture plate (Greiner VWR, Radnor, PA) which contained 50 nL/well of test compound serially diluted at a selected concentration range in DMSO. 5 μL/well of prepared 2× Stimulation Buffer2 was then added to plates and was incubated at 37° C. with 5% CO2 for 1 h. 5 μL/well of agonist Cortistatin 14 (Bio-TechneR&D Systems, Minneapolis, MN) in 1× Stimulation Buffer 2, for a 1 μM final concentration, was then added to plates and incubated at 37° C. with 5% CO2 for 1 h. 6 μL/well of 1:20 diluted Detection Reagent Mix (d2 and Cryptate) was added to the plates and incubated for 1 h in the dark. Plates were read on the PHERAstar microplate reader (BMG Labtech Cary, NC) to determine the HTRF ratio of the acceptor and donor emission signals. The IP1 concentrations were calculated from a standard curve following the IP-One GQ kit instructions. Wells with DMSO only and wells with high concentration of reference antagonist were used as controls for normalization. Compound IC50 curves were globally fitted with 3- or 4-parameter Hill equation in a Genedata Screener (Genedata Basel, Switzerland).

[2] = molecular target: T1, MRGPRX2; test: MRGPRX2 β-Arrestin assay; design: host or cells: PathHunter CHO-K1; details: PathHunter CHO-K1 MRGPRX2 β-Arrestin cell line; agonist Cortistatin 14 0.25 μM
Excerpt: Example C: MRGPRX2 β-Arrestin Assay
This assay measures compound inhibition of β-Arrestin recruitment, which is part of the G protein-independent pathway that results from the ligand-activated GPCR phosphorylation by specific GPCR kinases. The PathHunter CHO-K1 MRPGRX2 B-Arrestin Cell line stably expressing ProLink tagged MRGPRX2 and Enzyme Acceptor Tagged B-Arrestin was purchased from Eurofins DiscoverX, (Fremont, CA).
The cells were maintained in culture medium from the Europhins DiscoverX Cell Culture Kit-107 which includes FBS, hygromycin B and G418. For the assay, the cells were harvested and were resuspended with Cell Plating Reagent 2 (Eurofins DiscoverX). Cells were added 10000 cells in 25 µL/well to a 384-well black cell culture plate (Greiner VWR, Radnor, PA) which contained 125 nL/well of compound at a selected serially diluted concentration range or DMSO. The plate was incubated at 37° C. with 5% CO2 for 1 h. 2 μL/well of agonist Cortistatin 14 was diluted in Protein Dilution Buffer, (Eurofins DiscoverX) for a final concentration of 0.25 μM, was added and the plate was incubated at 37° C. with 5% CO2 for 90 min. 14 μL/well of Detection Reagent Mix (PathHunter Detection Kit, Eurofins DiscoverX) was added to the plates and further incubated for 1 h in the dark. Plates were read on the PHERAstar microplate reader (BMG Labtech Cary, NC) measuring luminescence 0.1 to 1 second per well. Data was normalized using DMSO only wells and wells with high concentration of reference antagonist as controls. Compound IC50 curves were globally fitted with 3- or 4-parameter Hill equation in a Genedata Screener (Genedata Basel, Switzerland).

[3] = molecular target: T1, MRGPRX2; test: MRGPRX2 FLIPR calcium mobilization assay; design: host or cells: CHO-K1; details: CHO-K1 cells stably expressing human MRGPRX2; Ca2+ release, agonist Cortistatin-14 at EC80
Method: Example A. MRGPRX2 FLIPR Calcium Mobilization Assay
Chinese hamster ovary (CHO-K1) cells stably expressing human MRGPRX2 were purchased from Genescript (Piscataway, NJ). The cells were maintained in culture medium (Ham's F-12K) containing 10% (v/v) FBS, 200 μg/mL Zeocin, 100 units/mL penicillin G and 100 μg/mL streptomycin (Life Technologies, Carlsbad, CA). For the assay, the cells were harvested and resuspended with culture medium without Zeocin before plating at 8000 cells per well in 20 μL in 384-well black clear bottom cell culture plates (VWR, Radnor, PA). After 24 h culture at 37° C. and 5% CO2, the cells were loaded with 20 μL/well of calcium dye (FLIPR Calcium 6 Assay Kit, Molecular Devices, San Jose, CA) diluted in loading buffer (1×Hank's Balanced Salt Solution (HBSS), 5 mM probenecid, 20 mM 4-(2-hydroxyethyl)-1-piperazineethanesulfonic acid (HEPES), pH 7.4, VWR, Radnor, PA) followed with 45 min incubation at 37° C. and 40 min at room temperature in the dark. Cells were then treated with the addition of 10 uL/well test compounds with a range of increasing concentrations diluted in the assay buffer (1×HBSS, 20 mM HEPES, pH 7.4, VWR, Radnor, PA) with FLIPR Penta (Molecular Devices. San Jose, CA) and incubated for 30 min. at room temperature. Ca^2+ release was measured with FLIPR Penta with 10 seconds basal fluorescence measurement, then 12.5 μL of 5× agonist Cortistatin-14 (Tocris, Minneapolis, MN) at final concentration corresponding to the EC80 were added followed with continued fluorescence signal monitoring for an additional 110 seconds. The base line adjusted (median of first 10s base line) max value of the Relative Fluorescence Unit (RFU) was plotted against compound concentrations. Wells with no compound were served as the positive controls, and wells with high concentration of reference antagonist were used as negative controls. IC50 curves were globally fitted with 3- or 4-parameter Hill equation in a Genedata Screener (Genedata Basel, Switzerland).

Structure (SMILES) | IC50 [1] [nM] | IC50 [2] [nM] | IC50 [3] [nM]
[2H]C([2H])([2H])NC(=O)N1CC(CNc2cc(C(F)(F)F)nc3ccc(Cl)cc23)(n2ncc3c2CCC3)C1 [Example 69, 3-(((6-Chloro-2-(trifluoromethyl)quinolin-4-yl)amino)methyl)-3-(5,6-dihydrocyclopenta[c]pyrazol-1(4H)-yl)-N-(methyl-d3)azetidine-1-carboxamide] |  | 0.1 to 100 | 
CN1CCC(C(=O)NC2CC(CNc3cc(C(F)(F)F)nc4ccc(Cl)cc34)(c3ccccc3)C2)CC1 (stereo not shown) [Example 76, N-(3-(((6-Chloro-2-(trifluoromethyl)quinolin-4-yl)amino)methyl)-3-phenylcyclobutyl)-1-methylpiperidine-4-carboxamide] |  | 0.1 to 100 | 
Cn1nccc1NC1CC(CNc2cc(C(F)(F)F)nc3ccc(Cl)cc23)(c2ccc(F)cn2)C1 (stereo not shown) [Example 72, 6-Chloro-N-((1-(5-fluoropyridin-2-yl)-3-((1-methyl-1H-pyrazol-5-yl)amino)cyclobutyl)methyl)-2-(trifluoromethyl)quinolin-4-amine] |  | 0.1 to 100 | 
CN1CC(C(=O)NC2CC(CNc3cc(C(F)(F)F)nc4ccc(Cl)cc34)(c3ccccc3)C2)C1 (stereo not shown) [Example 75, N-(3-(((6-Chloro-2-(trifluoromethyl)quinolin-4-yl)amino)methyl)-3-phenylcyclobutyl)-1-methylazetidine-3-carboxamide] |  | 0.1 to 100 | 
NC(=O)N1CC(CNc2cc(C(F)(F)F)nc3ccncc23)(c2ccc(F)cc2)C1 [Example 65, 3-(4-Fluorophenyl)-3-(((2-(trifluoromethyl)-1,6-naphthyridin-4-yl)amino)methyl)azetidine-1-carboxamide] |  | 100 to 1000 | 
Cc1ccc2nc(C(F)(F)F)cc(NCC3(c4ccc(F)cn4)CN(C(N)=O)C3)c2c1 [Example 56, 3-(5-Fluoropyridin-2-yl)-3-(((6-methyl-2-(trifluoromethyl)quinolin-4-yl)amino)methyl)azetidine-1-carboxamide] | 100 to 1000 |  | 0.1 to 100
NS(=O)(=O)N1CC(CNc2cc(C(F)(F)F)nc3ccc(Cl)cc23)(c2ccc(Cl)cc2)C1 [Example 33, 3-(((6-Chloro-2-(trifluoromethyl)quinolin-4-yl)amino)methyl)-3-(4-chlorophenyl)azetidine-1-sulfonamide] | 0.1 to 100 |  | 0.1 to 100
FC(F)(F)c1cc(NCC2(n3ccc(C(F)(F)F)n3)CNC2)c2cc(Cl)ccc2n1 [Example 68, 6-Chloro-2-(trifluoromethyl)-N-((3-(3-(trifluoromethyl)-1H-pyrazol-1-yl)azetidin-3-yl)methyl)quinolin-4-amine] |  | 100 to 1000 | 
N#Cc1ccc2nc(C(F)(F)F)cc(NCC3(c4ccc(F)cn4)CN(C(N)=O)C3)c2c1 [Example 58, 3-(((6-Cyano-2-(trifluoromethyl)quinolin-4-yl)amino)methyl)-3-(5-fluoropyridin-2-yl)azetidine-1-carboxamide] | 100 to 1000 |  | 100 to 1000
[2H]C([2H])([2H])NC(=O)N1CC(CNc2cc(C(F)(F)F)nc3ccc(Cl)cc23)(n2cc(CC#N)cn2)C1 [Example 71, 3-(((6-Chloro-2-(trifluoromethyl)quinolin-4-yl)amino)methyl)-3-(4-(cyanomethyl)-1H-pyrazol-1-yl)-N-(methyl-d3)azetidine-1-carboxamide] |  | 100 to 1000 | 
NC(=O)N1CC(CNc2cc(C(F)(F)F)nc3ccc(Cl)cc23)(c2ccccc2)C1 [Example 40, 3-(((6-Chloro-2-(trifluoromethyl)quinolin-4-yl)amino)methyl)-3-phenylazetidine-1-carboxamide] | 0.1 to 100 |  | 0.1 to 100

Further lines, results first:

IC50 [1] [nM] | IC50 [2] [nM] | IC50 [3] [nM] | Structure (SMILES)
0.1 to 100 | 0.1 to 100 |  | Fc1ccc(C2(CNc3cc(C(F)(F)F)nc4ccc(Cl)cc34)CN(Cc3cn[nH]c3)C2)cc1 [Example 93, N-((1-((1H-Pyrazol-4-yl)methyl)-3-(4-fluorophenyl)azetidin-3-yl)methyl)-6-chloro-2-(trifluoromethyl)quinolin-4-amine]
 | 0.1 to 100 |  | O=C(NC1CC(CNc2cc(C(F)(F)F)nc3ccc(Cl)cc23)(c2ccccc2)C1)C(O)C(F)(F)F (stereo not shown) [Example 77, N-(3-(((6-Chloro-2-(trifluoromethyl)quinolin-4-yl)amino)methyl)-3-phenylcyclobutyl)-3,3,3-trifluoro-2-hydroxypropanamide]
0.1 to 100 | 0.1 to 100 |  | O=C(N[C@H]1CC[C@H](O)CC1)N1CCC(CNc2cc(C(F)(F)F)nc3ccc(Cl)cc23)(c2ccc(F)cc2)CC1 [Example 87, 4-(((6-Chloro-2-(trifluoromethyl)quinolin-4-yl)amino)methyl)-4-(4-fluorophenyl)-N-((1r,4r)-4-hydroxycyclohexyl) piperidine-1-carboxamide]
0.1 to 100 |  | 0.1 to 100 | Cc1ccn(C2(CNc3cc(C(F)(F)F)nc4ccc(Cl)cc34)CN(C(N)=O)C2)n1 [Example 103, 3-(((6-Chloro-2-(trifluoromethyl)quinolin-4-yl)amino)methyl)-3-(3-methyl-1H-pyrazol-1-yl)azetidine-1-carboxamide]
0.1 to 100 |  | 0.1 to 100 | N#Cc1ccn(C2(CNc3cc(C(F)(F)F)nc4ccc(Cl)cc34)CN(C(N)=O)C2)n1 [Example 104, 3-(((6-Chloro-2-(trifluoromethyl)quinolin-4-yl)amino)methyl)-3-(3-cyano-1H-pyrazol-1-yl)azetidine-1-carboxamide]
 | 0.1 to 100 |  | COCCN1CC(CNc2cc(C(F)(F)F)nc3ccc(Cl)cc23)(c2ccc(F)cc2)C1 [Example 92, 6-Chloro-N-((3-(4-fluorophenyl)-1-(2-methoxyethyl)azetidin-3-yl)methyl)-2-(trifluoromethyl)quinolin-4-amine]
